The values below come from article PMC12775819, “Optimizing PSMA-617-based inhibitors through charged linker modifications: Insights into structure-activity relationships” (Theranostics, 2026).

Series [1] is described as follows: Static small-animal PET imaging 1 h and 2 h p.i. The conditions noted are these: male, BALB/c nu/nu, mouse, iv, 500 pmol, total radioactivity; for SUV at 1 h / SUV at 2 h: 68Ga-labeled, 0.5 nmol i.v., n = 1, SD from VOIs; for SUV at 1 h: static PET 1 h p.i.; for SUV at 2 h: static PET 2 h p.i.
A short description of series [2]: Dynamic small-animal PET imaging (0 - 60 min). The conditions noted are these: male, BALB/c nu/nu, mouse, tumor (LNCaP xenograft), iv, 500 pmol, total radioactivity.
The nature of series [3]: in vivo. The conditions noted are these: male, BALB/c nu/nu, mouse, iv, 500 pmol, total radioactivity.
Series [4] can be described thus: in vivo. The conditions noted are these: male, BALB/c nu/nu, mouse, iv, 500 pmol, total radioactivity. The source holds these as a separate data set.
Another series in a line: in vitro. The series is classed as in vitro ADME. The conditions noted are these: mouse, serum. As to the method: Incubation in human and murine serum (BioIVT, United Kingdom) was used to determine the stability of the described precursors. First, the substances were labeled with [^177Lu]Lu^3+ and added to 100 µl of pre-warmed serum (0.5 nmol, 3 - 10 MBq). The reaction mixture was incubated at 37 °C and 10 µl samples were taken at regular intervals (0, 6, 24, 48, 72 h). After precipitation of the proteins by the addition of 30 µl of acetonitrile, the probes were centrifuged for 2 min at 14,000 rpm and the stability determined by analytical radio-HPLC of the […].

The mark [5] stands for this setting: tumor (LNCaP xenograft), SUV tumor.

Broadly, the amount remaining is the share of the starting amount still present when the sample was taken.

Non-standard residues stand in square brackets, D forms with d. Residues, ends and D or L forms follow the SMILES beside them. *: point of attachment. DOTA = O=C(O)CN1CCN(CC(=O)O)CCN(CC(=O)*)CCN(CC(=O)O)CC1; EuK = O=C(O)CC[C@H](NC(=O)N[C@@H](CCCCN*)C(=O)O)C(=O)O; 2Nal = N[C@@H](Cc1ccc2ccccc2c1)C(=O)O; Trx = NC[C@H]1CC[C@H](C(=O)O)CC1

For `O=C(O)CC[C@H](NC(=O)N[C@@H](CCCCNC(=O)[C@H](Cc1ccc2ccccc2c1)NC(=O)[C@H]1CC[C@H](CNC(=O)[C@H](CCC(=O)O)NC(=O)[C@H](Cc2c[nH]cn2)NC(=O)[C@H](CCC(=O)O)NC(=O)[C@H](Cc2c[nH]cn2)NC(=O)[C@H](CCC(=O)O)NC(=O)[C@H](Cc2c[nH]cn2)NC(=O)CN2CCN(CC(=O)O)CCN(CC(=O)O)CCN(CC(=O)O)CC2)CC1)C(=O)O)C(=O)O` [[^68Ga]Ga-PS4, metal not drawn] ({DOTA}-HEHEHE[Trx][2Nal]-EuK), the SUV at 1 h was 3.81 ± 0.15 SUV in series [1] (kidneys, SUV kidneys); 1.15 ± 0.04 SUV in series [1] (setting [5]); 1.07 SUV in series [2]. Moreover, the SUV at 2 h in series [1] (kidneys, SUV kidneys) stood at 2.77 ± 0.2 SUV; in series [1] (setting [5]), 1.07 ± 0.09 SUV. For the same molecule, the tissue to tissue ratio at 1 h in series [1] (tumor / muscle) was found to be 10.5 ± 0.2.
For the molecule `O=C(O)CC[C@H](NC(=O)N[C@@H](CCCCNC(=O)[C@H](Cc1ccc2ccccc2c1)NC(=O)[C@H]1CC[C@H](CNC(=O)[C@H](CCC(=O)O)NC(=O)[C@H](CCC(=O)O)NC(=O)[C@H](CCC(=O)O)NC(=O)CN2CCN(CC(=O)O)CCN(CC(=O)O)CCN(CC(=O)O)CC2)CC1)C(=O)O)C(=O)O` [[^68Ga]Ga-PS8, metal not drawn] ({DOTA}-EEE[Trx][2Nal]-EuK), the tissue to tissue ratio at 1 h in the series “in vivo [3]” stood at 16.2 ± 0.27. Moreover, the SUV at 1 h in the series “in vivo [4]” was 1.17 SUV.
Take `O=C(O)CC[C@H](NC(=O)N[C@@H](CCCCNC(=O)[C@H](Cc1ccc2ccccc2c1)NC(=O)[C@H]1CC[C@H](CNC(=O)[C@H](Cc2c[nH]cn2)NC(=O)[C@H](Cc2c[nH]cn2)NC(=O)[C@H](Cc2c[nH]cn2)NC(=O)CN2CCN(CC(=O)O)CCN(CC(=O)O)CCN(CC(=O)O)CC2)CC1)C(=O)O)C(=O)O` [[^68Ga]Ga-PS11, metal not drawn] ({DOTA}-HHH[Trx][2Nal]-EuK): in the series “in vivo [3]”, the tissue to tissue ratio at 1 h was found to be 0.66 ± 0.15 and the tissue to tissue ratio at 2 h turned out to be 1.15 ± 0.27. For the same molecule, the tissue to tissue ratio at 1 h in “in vivo [4]” stood at 0.633.
`O=C(O)CC[C@H](NC(=O)N[C@@H](CCCCNC(=O)[C@H](Cc1c[nH]cn1)NC(=O)[C@H](Cc1c[nH]cn1)NC(=O)[C@H](Cc1c[nH]cn1)NC(=O)[C@H](Cc1ccc2ccccc2c1)NC(=O)[C@H]1CC[C@H](CNC(=O)CN2CCN(CC(=O)O)CCN(CC(=O)O)CCN(CC(=O)O)CC2)CC1)C(=O)O)C(=O)O` [[^177Lu]Lu-PS9, metal not drawn] ({DOTA-Trx}-[2Nal]HHH-EuK) registered a metabolised at 24 h, 5 µM in the series “in vitro” of roughly 40%.
As to `O=C(O)CC[C@H](NC(=O)N[C@@H](CCCCNC(=O)[C@H](Cc1ccc2ccccc2c1)NC(=O)[C@H](Cc1c[nH]cn1)NC(=O)[C@H](Cc1c[nH]cn1)NC(=O)[C@H](Cc1c[nH]cn1)NC(=O)[C@H]1CC[C@H](CNC(=O)CN2CCN(CC(=O)O)CCN(CC(=O)O)CCN(CC(=O)O)CC2)CC1)C(=O)O)C(=O)O` [[^177Lu]Lu-PS10, metal not drawn] ({DOTA-Trx}-HHH[2Nal]-EuK), the fraction remaining at 48 h, 5 µM in “in vitro” was 64%.
